Measurements published in ChEMBL document CHEMBL5465560, “Selectivity Literature for EUbOPEN Chemogenomic Library” (2024).

Tests used:
[1] = target: High affinity nerve growth factor receptor (Homo sapiens, UniProt P04629); experiment: Selectivity interaction (KinomeScan (DiscoverX)) EUB0000666a NTRK1; conditions: at 10 µM
[2] = target: T1, Serine/threonine-protein kinase D2 (Homo sapiens) (UniProt Q9BZL6); experiment: Selectivity interaction (KinomeScan (DiscoverX)) EUB0000666a PRKD2; conditions: at 10 µM
T1 sequence (whole entry): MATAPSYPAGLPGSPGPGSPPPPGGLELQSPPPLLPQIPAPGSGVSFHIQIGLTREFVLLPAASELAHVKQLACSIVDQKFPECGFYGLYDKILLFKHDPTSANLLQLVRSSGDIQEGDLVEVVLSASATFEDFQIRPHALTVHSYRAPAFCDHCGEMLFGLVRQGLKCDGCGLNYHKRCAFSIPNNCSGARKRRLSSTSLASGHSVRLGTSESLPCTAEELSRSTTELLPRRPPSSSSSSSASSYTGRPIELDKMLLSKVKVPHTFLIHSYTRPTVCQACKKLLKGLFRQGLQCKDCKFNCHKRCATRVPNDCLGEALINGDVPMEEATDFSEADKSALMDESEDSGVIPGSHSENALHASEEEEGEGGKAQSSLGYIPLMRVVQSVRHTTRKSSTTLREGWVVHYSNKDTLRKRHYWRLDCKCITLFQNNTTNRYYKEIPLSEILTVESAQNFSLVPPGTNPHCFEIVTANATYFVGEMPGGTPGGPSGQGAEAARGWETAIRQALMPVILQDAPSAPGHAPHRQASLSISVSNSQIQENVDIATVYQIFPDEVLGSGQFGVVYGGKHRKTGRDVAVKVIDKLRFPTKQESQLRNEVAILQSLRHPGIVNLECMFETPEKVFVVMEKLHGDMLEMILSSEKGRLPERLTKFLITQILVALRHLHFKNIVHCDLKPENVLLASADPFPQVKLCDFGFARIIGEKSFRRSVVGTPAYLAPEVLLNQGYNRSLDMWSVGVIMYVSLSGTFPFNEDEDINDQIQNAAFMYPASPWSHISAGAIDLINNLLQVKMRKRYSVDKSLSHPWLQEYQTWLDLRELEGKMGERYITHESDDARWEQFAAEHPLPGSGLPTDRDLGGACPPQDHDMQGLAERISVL

[3] = target: Serine/threonine-protein kinase 33 (Homo sapiens) (UniProt Q9BYT3); experiment: Selectivity interaction (KinomeScan (DiscoverX)) EUB0000666a STK33; conditions: at 10 µM
[4] = target: T2, Serine/threonine-protein kinase 17A (Homo sapiens) (UniProt Q9UEE5); experiment: Selectivity interaction (KinomeScan (DiscoverX)) EUB0000607a STK17A; conditions: at 10 µM
T2 sequence (whole entry): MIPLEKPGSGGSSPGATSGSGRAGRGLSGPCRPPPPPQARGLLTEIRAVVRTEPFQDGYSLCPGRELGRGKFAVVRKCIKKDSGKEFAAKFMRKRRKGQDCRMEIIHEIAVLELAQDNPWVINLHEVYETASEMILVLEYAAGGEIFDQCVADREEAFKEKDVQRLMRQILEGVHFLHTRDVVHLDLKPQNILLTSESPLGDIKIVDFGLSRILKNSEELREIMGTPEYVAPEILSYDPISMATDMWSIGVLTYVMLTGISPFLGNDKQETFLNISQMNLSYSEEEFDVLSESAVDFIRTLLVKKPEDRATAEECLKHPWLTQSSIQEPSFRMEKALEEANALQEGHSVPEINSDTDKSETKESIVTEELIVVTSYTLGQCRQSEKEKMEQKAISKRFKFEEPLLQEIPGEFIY

Ephrin type-A receptor 4 = Ephrin type-A receptor 4 (Homo sapiens, UniProt P54764); experiment: Selectivity interaction (Kinase panel (Invitrogen)) EUB0000639a EPHA4; conditions: at 200 nM
[5] = target: Tyrosine-protein kinase Fer (Homo sapiens) (UniProt P16591); experiment: Selectivity interaction (ActivX KiNativ screen (kinase selectivity in THP-1 cell lysates)) EUB0000639a FER; format: subcellular; conditions: lysate, at 0.01 µM
[6] = target: T1, Serine/threonine-protein kinase D2 (Homo sapiens); experiment: Selectivity interaction (ActivX KiNativ screen (kinase selectivity in THP-1 cell lysates)) EUB0000639a PRKD2; format: subcellular; conditions: lysate, at 0.04 µM
[7] = target: T3, SNF-related serine/threonine-protein kinase (Homo sapiens) (UniProt Q9NRH2); experiment: Selectivity interaction (ActivX KiNativ screen (kinase selectivity in THP-1 cell lysates)) EUB0000639a SNRK; format: subcellular; conditions: lysate, at 0.01 µM
T3 sequence (whole entry): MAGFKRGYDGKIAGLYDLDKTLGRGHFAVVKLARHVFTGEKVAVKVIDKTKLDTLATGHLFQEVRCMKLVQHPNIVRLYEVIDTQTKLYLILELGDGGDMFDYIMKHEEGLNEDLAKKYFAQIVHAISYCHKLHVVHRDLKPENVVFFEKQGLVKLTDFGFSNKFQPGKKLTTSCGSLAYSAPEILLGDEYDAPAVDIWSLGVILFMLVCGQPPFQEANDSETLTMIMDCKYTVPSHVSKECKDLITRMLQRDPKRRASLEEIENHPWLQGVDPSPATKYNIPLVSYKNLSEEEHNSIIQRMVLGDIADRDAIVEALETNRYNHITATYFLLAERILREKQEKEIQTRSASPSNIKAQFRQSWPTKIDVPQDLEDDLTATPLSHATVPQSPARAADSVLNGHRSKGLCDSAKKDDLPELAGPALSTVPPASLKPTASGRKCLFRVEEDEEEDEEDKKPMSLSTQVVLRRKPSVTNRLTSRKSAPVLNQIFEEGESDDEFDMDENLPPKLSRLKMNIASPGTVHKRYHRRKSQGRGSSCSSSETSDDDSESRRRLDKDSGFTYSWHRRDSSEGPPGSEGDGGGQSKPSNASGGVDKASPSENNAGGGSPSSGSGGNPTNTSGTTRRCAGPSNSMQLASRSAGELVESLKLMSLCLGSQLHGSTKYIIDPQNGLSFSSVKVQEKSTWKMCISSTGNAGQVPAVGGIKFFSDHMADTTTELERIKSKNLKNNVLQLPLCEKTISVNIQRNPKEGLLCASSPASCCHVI

[8] = target: Dual specificity mitogen-activated protein kinase kinase 1 (Homo sapiens, UniProt Q02750); experiment: Selectivity interaction (Kinase panel (DSF assay)) EUB0001559a MAP2K1
[9] = target: Fibroblast growth factor receptor 4 (Homo sapiens, UniProt P22455); experiment: Selectivity interaction (Kinase screening (Nanosyn)) EUB0000604a FGFR4
[10] = target: Myosin light chain kinase 2, skeletal/cardiac muscle (Homo sapiens) (UniProt Q9H1R3); experiment: Selectivity interaction (Ambit KINOMEscan and KiNATiv profiling in Jurkat cells) EUB0000090b MYLK2; format: cell-based; conditions: at 1 µM
[11] = target: Protein kinase C delta type (Homo sapiens) (UniProt Q05655); experiment: Selectivity interaction (Ambit KINOMEscan and KiNATiv profiling in Jurkat cells) EUB0000090b PRKCD; format: cell-based; conditions: at 1 µM
[12] = target: Serine/threonine-protein kinase mTOR (Homo sapiens, UniProt P42345); conditions: at 10 µM
[13] = target: Ribosomal protein S6 kinase alpha-1 (Homo sapiens, UniProt Q15418); conditions: at 10 µM
Ribosomal protein S6 kinase alpha-1, sequence (Q15418 whole entry): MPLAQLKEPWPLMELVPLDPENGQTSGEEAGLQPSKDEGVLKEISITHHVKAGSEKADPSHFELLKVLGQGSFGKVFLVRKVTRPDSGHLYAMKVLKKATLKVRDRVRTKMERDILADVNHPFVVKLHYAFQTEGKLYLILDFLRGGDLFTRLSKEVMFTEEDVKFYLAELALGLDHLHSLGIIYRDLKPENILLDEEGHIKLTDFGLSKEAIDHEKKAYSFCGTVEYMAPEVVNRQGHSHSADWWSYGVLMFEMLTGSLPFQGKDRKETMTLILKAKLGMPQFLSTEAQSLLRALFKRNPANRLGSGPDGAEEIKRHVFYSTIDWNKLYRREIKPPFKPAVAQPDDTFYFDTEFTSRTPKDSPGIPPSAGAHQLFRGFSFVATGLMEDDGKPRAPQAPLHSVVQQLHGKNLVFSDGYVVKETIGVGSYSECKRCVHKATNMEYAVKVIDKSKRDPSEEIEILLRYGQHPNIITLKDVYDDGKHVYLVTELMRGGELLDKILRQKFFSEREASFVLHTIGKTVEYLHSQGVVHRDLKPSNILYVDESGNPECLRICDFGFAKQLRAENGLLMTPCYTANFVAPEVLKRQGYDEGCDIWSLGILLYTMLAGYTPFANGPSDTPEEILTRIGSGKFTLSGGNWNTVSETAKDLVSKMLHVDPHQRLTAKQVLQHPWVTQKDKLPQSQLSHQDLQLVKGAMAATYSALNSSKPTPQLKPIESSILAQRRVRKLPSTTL

Ephrin type-A receptor 4, sequence (P54764 whole entry): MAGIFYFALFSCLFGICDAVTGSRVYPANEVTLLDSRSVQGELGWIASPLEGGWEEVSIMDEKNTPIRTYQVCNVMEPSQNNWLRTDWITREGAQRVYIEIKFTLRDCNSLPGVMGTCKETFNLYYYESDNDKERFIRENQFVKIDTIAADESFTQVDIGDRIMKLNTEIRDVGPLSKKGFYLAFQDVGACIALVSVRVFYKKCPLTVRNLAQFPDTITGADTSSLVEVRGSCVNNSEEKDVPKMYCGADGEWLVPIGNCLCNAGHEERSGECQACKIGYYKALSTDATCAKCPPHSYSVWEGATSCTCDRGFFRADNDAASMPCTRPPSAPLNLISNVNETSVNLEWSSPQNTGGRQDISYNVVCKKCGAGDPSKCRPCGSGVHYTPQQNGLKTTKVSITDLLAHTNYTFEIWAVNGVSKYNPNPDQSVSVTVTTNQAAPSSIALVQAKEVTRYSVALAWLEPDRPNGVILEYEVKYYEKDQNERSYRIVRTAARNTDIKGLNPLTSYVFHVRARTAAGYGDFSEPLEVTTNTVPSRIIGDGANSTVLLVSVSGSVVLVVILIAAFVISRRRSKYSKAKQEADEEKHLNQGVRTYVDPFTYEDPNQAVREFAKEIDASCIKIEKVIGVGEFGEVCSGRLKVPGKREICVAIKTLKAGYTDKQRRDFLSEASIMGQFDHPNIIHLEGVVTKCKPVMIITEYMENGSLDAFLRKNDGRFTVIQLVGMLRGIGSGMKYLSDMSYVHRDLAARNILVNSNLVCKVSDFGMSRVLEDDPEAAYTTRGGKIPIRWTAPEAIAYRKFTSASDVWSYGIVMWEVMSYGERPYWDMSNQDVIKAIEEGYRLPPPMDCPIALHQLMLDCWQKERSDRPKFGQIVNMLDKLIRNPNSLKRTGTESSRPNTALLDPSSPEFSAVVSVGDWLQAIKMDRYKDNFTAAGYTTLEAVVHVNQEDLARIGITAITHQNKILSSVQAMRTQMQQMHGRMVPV
Fibroblast growth factor receptor 4, sequence (P22455 22-802 limits assumed): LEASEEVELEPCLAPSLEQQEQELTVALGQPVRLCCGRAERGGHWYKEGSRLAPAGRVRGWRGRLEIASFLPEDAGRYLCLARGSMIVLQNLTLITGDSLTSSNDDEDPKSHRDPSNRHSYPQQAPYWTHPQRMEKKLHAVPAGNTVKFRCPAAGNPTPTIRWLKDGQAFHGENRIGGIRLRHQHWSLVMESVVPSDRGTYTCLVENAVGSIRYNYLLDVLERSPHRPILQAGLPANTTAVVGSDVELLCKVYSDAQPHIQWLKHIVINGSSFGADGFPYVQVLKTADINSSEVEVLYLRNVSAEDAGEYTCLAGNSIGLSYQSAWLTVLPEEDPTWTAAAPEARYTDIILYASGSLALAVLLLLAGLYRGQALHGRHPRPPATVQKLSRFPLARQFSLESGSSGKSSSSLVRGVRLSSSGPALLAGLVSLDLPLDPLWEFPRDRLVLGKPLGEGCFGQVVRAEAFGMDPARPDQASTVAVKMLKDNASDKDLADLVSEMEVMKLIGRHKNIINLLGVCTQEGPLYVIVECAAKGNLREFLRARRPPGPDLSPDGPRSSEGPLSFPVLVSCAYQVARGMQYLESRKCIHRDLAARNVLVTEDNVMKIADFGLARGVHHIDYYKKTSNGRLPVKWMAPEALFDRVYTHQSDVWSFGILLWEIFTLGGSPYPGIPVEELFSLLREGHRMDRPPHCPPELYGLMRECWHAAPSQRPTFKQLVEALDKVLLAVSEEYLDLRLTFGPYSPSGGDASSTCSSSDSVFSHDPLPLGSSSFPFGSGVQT
Dual specificity mitogen-activated protein kinase kinase 1, sequence (Q02750 whole entry): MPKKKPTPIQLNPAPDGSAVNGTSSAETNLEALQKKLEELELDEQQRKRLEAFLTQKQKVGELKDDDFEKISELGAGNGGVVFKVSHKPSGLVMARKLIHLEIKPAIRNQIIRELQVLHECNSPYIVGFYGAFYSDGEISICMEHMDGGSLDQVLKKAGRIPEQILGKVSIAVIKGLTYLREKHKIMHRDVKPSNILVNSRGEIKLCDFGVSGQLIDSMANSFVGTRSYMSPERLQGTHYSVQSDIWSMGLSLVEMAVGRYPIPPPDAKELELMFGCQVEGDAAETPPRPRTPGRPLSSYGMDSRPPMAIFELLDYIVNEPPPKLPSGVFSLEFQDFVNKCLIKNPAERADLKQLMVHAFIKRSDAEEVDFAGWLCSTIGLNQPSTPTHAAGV
Serine/threonine-protein kinase 33 (Homo sapiens), sequence (Q9BYT3 whole entry, looked up): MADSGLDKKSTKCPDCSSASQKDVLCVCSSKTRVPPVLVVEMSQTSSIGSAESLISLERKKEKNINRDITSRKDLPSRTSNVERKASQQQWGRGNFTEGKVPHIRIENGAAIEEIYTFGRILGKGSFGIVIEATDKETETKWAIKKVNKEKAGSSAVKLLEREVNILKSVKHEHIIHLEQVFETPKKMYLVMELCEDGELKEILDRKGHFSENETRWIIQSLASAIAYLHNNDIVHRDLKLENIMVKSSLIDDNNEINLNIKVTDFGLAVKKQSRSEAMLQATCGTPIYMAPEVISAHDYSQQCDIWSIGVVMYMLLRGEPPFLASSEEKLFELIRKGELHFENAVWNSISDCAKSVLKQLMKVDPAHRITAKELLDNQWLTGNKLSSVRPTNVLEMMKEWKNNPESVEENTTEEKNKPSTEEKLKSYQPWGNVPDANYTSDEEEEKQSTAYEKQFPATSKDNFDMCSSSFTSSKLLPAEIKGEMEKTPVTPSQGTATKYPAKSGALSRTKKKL
Tyrosine-protein kinase Fer (Homo sapiens), sequence (P16591 whole entry, looked up): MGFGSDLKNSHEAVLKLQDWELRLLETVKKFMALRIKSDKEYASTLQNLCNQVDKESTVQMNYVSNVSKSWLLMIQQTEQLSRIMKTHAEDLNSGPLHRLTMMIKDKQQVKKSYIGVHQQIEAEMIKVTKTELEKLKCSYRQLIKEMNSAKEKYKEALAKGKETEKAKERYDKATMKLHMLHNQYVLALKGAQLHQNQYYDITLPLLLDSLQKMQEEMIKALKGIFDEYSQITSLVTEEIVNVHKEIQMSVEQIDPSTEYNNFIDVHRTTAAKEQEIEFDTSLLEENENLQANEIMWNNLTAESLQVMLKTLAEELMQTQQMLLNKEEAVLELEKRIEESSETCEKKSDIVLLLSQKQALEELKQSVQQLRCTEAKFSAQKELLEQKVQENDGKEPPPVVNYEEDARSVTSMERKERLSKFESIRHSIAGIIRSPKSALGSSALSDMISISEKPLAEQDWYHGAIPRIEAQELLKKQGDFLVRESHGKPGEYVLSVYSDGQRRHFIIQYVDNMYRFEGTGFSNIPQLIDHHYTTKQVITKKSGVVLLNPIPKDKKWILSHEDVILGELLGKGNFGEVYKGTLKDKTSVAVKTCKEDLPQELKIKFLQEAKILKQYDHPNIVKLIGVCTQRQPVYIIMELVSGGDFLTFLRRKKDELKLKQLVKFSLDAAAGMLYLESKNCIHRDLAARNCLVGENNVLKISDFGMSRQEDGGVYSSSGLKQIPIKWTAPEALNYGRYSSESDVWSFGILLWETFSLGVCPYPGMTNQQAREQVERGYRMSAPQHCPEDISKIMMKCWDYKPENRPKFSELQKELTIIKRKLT
Myosin light chain kinase 2, skeletal/cardiac muscle (Homo sapiens), sequence (Q9H1R3 whole entry): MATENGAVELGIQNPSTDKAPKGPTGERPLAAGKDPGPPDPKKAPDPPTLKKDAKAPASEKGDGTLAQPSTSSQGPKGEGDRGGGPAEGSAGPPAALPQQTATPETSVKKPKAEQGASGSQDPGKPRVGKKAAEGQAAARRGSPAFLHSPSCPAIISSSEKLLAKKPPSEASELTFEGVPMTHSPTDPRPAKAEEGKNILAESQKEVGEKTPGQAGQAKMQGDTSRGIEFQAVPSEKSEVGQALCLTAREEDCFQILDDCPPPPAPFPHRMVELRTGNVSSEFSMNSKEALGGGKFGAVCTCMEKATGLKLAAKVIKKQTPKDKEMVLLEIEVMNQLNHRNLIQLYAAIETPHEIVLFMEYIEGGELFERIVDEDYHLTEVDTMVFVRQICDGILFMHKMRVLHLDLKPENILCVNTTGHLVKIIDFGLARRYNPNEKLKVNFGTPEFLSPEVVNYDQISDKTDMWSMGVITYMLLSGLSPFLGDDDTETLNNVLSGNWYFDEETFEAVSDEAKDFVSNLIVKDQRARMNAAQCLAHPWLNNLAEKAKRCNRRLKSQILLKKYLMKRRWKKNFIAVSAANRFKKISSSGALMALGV

O=C(NOC[C@H](O)CO)c1ccc(F)c(F)c1Nc1ccc(I)cc1F
% of control [1]: 100% | % of control [2]: 100% | % of control [3]: 79%

CNC(=O)Nc1ccc(-c2nc(N3CC4CCC(C3)O4)c3cnn(C4CCC5(CC4)OCCO5)c3n2)cc1
% of control [4]: 100%

CC[C@@H]1[C@H](F)C(=O)N[C@@H]1COc1nccc2cc(C(N)=O)c(OC)cc12 [ZIMLOVISERTIB]
% of inhibition (Ephrin type-A receptor 4): 6.54% | % of inhibition [5]: -9% | % of inhibition [6]: -3.5% | % of inhibition [7]: 0.6%

CN(C(=O)c1cnn2cccnc12)c1cc2c(cc1N1CCOCC1)C(=O)N(C[C@@H](F)C(C)(C)O)C2
dTM [8]: -0.8 K

Cc1cnc(Nc2ccc(F)cc2Cl)nc1-c1c[nH]c(C(=O)N[C@H](CO)c2cccc(Cl)c2)c1
% of inhibition [9]: 0.3%

CN(C)C/C=C/C(=O)Nc1ccc(C(=O)N2CCCC(Nc3ncc(Cl)c(-c4c[nH]c5ccccc45)n3)C2)cc1 (centres undefined)
% of control [10]: 91% | % of control [11]: 75%

CCC(=O)N1CCN(c2ccc(-n3c(=O)ccc4cnc5ccc(-c6cnc7ccccc7c6)cc5c43)cc2C(F)(F)F)CC1
% of control [12]: 0%

Cc1cc([C@@H](C)Nc2ccccc2C(=O)O)c2nc(N3CCOCC3)cc(=O)n2c1 [AZD-6482]
% of control [13]: 73%
